The record followed here is US6369222B1, “mGluR antagonists and a method for their synthesis” (Hoffmann-La Roche Inc., priority 2000, dated 2002).

One data set deals with T1, rat mGluR1a receptor (Rattus norvegicus, UniProt P23385).
T1 construct: expressed in transfected cells; host or cells: HEK 293 cells, transient transfection; membranes used
The data set can be described thus: Binding assay for the characterization of mGluR 1 antagonistic properties (displacement of tritiated 1-ethyl-2-methyl-6-oxo-4-(1,1,2-tritritio-1,2,4,5-tetrahydro-benzo[d]azepin-3-yl)-1,6-dihydro-pyrimidine-5-carbonitrile). As to conditions: membranes of HEK 293 cells transiently transfected with rat mGluR1a, 10 μg protein per assay; radioligand 3 nM; 1 hour at room temperature; read-out: B-IC50. The procedure: Binding Assay for the Characterization of mGluR 1 Antagonistic Properties
Binding assay with tritiated 1-ethyl-2-methyl-6-oxo-4-(1,1,2-tritritio-1,2,4,5-tetrahydro-benzo[d]azepin-3-yl)-1,6-dihydro-pyrimidine-5-carbonitrile: HEK 293 cells were transiently transfected with the rat mGluR1a receptor. The cells were collected and washed 3 times with PBS. The cell pellets were frozen at −80° C. Membranes were prepared from HEK 293 cells transfected with the rat mGluR1a receptor and used in the binding experiments at 10 μg proteins per assay after resuspension in a HEPES NaOH 20 mM, pH=7.4 binding buffer. 1-Ethyl-2-methyl-6-oxo-4-(1,1,2-tritritio-1,2,4,5-tetrahydro-benzo[d]azepin-3-yl)-1,6-dihydro-pyrimidine-5-carbonitrile (S.A. 33.4 Ci/mmol) was used at 3 nM final concentration. The incubation with variable concentrations of potential inhibitors was performed for 1 hour at room temperature, the incubate was then filtered onto GF/B glass fiber filter preincubated 1 hour in PEI 0,1% and washed 3 times with 1 ml of cold binding buffer. The radioactivity retained on the unifilter 96 was counted using a Topcount β counter. After correction for non specific binding the data were normalized and the IC50 value calculated using a 4 parameters logistic equation which was fitted to the inhibition curve.

T1 sequence (P23385 19-1199): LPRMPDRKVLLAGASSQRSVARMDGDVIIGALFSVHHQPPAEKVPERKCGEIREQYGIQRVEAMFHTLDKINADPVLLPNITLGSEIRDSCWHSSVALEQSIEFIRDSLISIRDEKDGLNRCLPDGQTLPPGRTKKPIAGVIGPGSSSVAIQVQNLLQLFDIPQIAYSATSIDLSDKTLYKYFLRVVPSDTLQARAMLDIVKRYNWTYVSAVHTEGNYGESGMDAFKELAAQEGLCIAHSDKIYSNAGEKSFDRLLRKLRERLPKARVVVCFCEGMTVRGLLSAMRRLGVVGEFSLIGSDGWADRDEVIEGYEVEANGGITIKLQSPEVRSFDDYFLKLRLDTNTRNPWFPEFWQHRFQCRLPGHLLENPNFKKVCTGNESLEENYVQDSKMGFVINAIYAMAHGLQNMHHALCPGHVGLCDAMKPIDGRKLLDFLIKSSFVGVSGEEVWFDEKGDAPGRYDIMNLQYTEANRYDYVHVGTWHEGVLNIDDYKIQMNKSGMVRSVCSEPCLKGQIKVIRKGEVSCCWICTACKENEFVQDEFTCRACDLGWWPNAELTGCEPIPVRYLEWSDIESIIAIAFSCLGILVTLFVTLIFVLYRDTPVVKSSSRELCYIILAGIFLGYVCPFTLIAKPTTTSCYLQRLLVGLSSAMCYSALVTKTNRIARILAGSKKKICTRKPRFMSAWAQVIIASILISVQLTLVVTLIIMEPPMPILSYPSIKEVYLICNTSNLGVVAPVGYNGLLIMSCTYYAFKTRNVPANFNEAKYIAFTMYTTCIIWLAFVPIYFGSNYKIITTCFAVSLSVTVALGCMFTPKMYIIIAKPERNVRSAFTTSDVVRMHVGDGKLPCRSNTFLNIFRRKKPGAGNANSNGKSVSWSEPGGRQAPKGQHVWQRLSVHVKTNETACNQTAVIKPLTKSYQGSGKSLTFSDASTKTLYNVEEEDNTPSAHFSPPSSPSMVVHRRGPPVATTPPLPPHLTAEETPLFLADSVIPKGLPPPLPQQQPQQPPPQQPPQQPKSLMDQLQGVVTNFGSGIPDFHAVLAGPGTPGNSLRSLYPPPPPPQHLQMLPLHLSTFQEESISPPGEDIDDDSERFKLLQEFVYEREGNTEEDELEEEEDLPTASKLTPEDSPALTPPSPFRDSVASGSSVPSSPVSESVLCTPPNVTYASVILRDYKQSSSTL

Broadly, the melting point is the temperature of the solid-liquid transition. In general, IC50 refers to the concentration that gives 50% inhibition. Molecule `Cc1nc(N2CCc3nc(C)sc3CC2)c([N+](=O)[O-])c(=O)[nH]1` [Example 1, 2-methyl-6-(2-methyl-4,5,7,8-tetrahydro-thiazolo[4,5-d]azepin-6-yl)-5-nitro-3H-pyrimidin-4-one] came in with a melting point of more than 200 °C. At rat mGluR1a receptor, the IC50 is 30 µM.
In turn, `CCn1c(C)nc(N2CCc3nc(C)sc3CC2)c([N+](=O)[O-])c1=O` [Example 2, 3-Ethyl-2-methyl-6-(2-methyl-4,5,7,8-tetrahydro-thiazolo[4,5-d]azepin-6-yl)-5-nitro-3H-pyrimidin-4-one] yielded a melting point of 164.2 to 166.8 °C.
In the case of `Cc1nc(N2CCc3nc(N)sc3CC2)c([N+](=O)[O-])c(=O)[nH]1` [Example 3, 6-(2-Amino-4,5,7,8-tetrahydro-thiazolo[4,5-d]azepin-6-yl)-2-methyl-5-nitro-3H-pyrimidin-4-one], the melting point was more than 200 °C. Further, the IC50 at rat mGluR1a receptor is 49 µM.
For the molecule `CCn1c(C)nc(N2CCc3nc(N)sc3CC2)c([N+](=O)[O-])c1=O` [Example 4, 6-(2-Amino-4,5,7,8-tetrahydro-thiazolo[4,5-d]azepin-6-yl)-3-ethyl-2-methyl-5-nitro-3H-pyrimidin-4-one], the melting point is more than 200 °C. Moreover, the IC50 on rat mGluR1a receptor amounted to 6 µM.
In turn, `Cc1nc(O)c2c(n1)CCN(c1nc(C)nc(O)c1[N+](=O)[O-])CC2` [Example 5, 7-(6-Hydroxy-2-methyl-5-nitro-pyrimidin-4-yl)-2-methyl-6,7,8,9-tetrahydro-5H-pyrimido[4,5-d]azepin-4-ol] yielded a melting point of more than 200 °C.
On to `Cc1nc(N2CCc3ncsc3CC2)c([N+](=O)[O-])c(=O)[nH]1` [Example 6, 2-Methyl-5-nitro-6-(4,5,7,8-tetrahydro-thiazolo[4,5-d]azepin-6-yl)-3H-pyrimidin-4-one], for which the concentration for half-maximal inhibition (IC50) on rat mGluR1a receptor was 43 µM.
Take `Cc1nc(O)c([N+](=O)[O-])c(N2CCc3cncnc3CC2)n1` [Example 7, 2-Methyl-5-nitro-6-(5,6,8,9-tetrahydro-pyrimido[4,5-d]azepin-7-yl)-pyrimidin-4-ol]: the melting point was more than 200 °C.
Molecule `Cc1nc(N2CCc3ccsc3CC2)c([N+](=O)[O-])c(=O)[nH]1` [Example 9, 2-Methyl-5-nitro-6-(4,5,7,8-tetrahydro-thieno[2,3-d]azepin-6-yl)-3H-pyrimidin-4-one] returned a melting point of more than 200 °C. Further, the IC50 on rat mGluR1a receptor came to 1.9 µM.
